Results: PubChem BioAssay (NCI)
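48-hour exposure; five concentrations; linearly interpolated endpoints. GI50 marks 50% less growth. The concentration for full growth arrest is given as TGI.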

Columns and labels:
Assay in all cases: NCI-60 cell line screen, 48 h
SF-539 CNS = test system: SF-539 CNS
HT29 colon = test system: HT29 colon
HCC-2998 colon = test system: HCC-2998 colon
MDA-N = test system: MDA-N
OVCAR-5 ovarian = test system: OVCAR-5 ovarian
786-0 renal = test system: 786-0 renal
HL-60(TB) leukemia = test system: HL-60(TB) leukemia
SW-620 colon = test system: SW-620 colon
NCI-H23 lung = test system: NCI-H23 lung
U251 CNS = test system: U251 CNS
SF-295 CNS = test system: SF-295 CNS
HOP-92 NSCLC = test system: HOP-92 NSCLC
SK-MEL-28 melanoma = test system: SK-MEL-28 melanoma
SNB-19 CNS = test system: SNB-19 CNS
SK-OV-3 ovarian = test system: SK-OV-3 ovarian
RXF 393 renal = test system: RXF 393 renal
HOP-62 NSCLC = test system: HOP-62 NSCLC
UACC-62 melanoma = test system: UACC-62 melanoma
SR leukemia = test system: SR leukemia

Row | Compound | TGI (SF-539 CNS) [µM] | TGI (HT29 colon) [µM] | TGI (HCC-2998 colon) [µM] | TGI (MDA-N) [µM] | TGI (OVCAR-5 ovarian) [µM] | TGI (786-0 renal) [µM] | TGI (HL-60(TB) leukemia) [µM] | TGI (SW-620 colon) [µM] | TGI (NCI-H23 lung) [µM] | TGI (U251 CNS) [µM] | TGI (SF-295 CNS) [µM] | TGI (HOP-92 NSCLC) [µM] | TGI (SK-MEL-28 melanoma) [µM] | TGI (SNB-19 CNS) [µM] | TGI (SK-OV-3 ovarian) [µM] | TGI (RXF 393 renal) [µM] | TGI (HOP-62 NSCLC) [µM] | TGI (UACC-62 melanoma) [µM] | TGI (SR leukemia) [µM] | GI50 (HCC-2998 colon) [µM]
1 | Nc1cnc2c(c1)c(=O)nc1n2CCS1 | > 100 | > 100 | > 100 | > 100 | > 100 | > 100 | > 100 | > 100 | > 100 | > 100 | > 100 | > 100 | > 100 | > 100 | > 100 | > 100 | > 100 | > 100 |  | 
2 | Cc1cc(=O)oc2c(CNC(C(=O)O)C(C)O)c(O)ccc12 (stereo unspecified) | > 100 | > 100 |  | > 100 | > 100 | > 100 | > 100 | > 100 | > 100 | > 100 | > 100 | > 100 | > 100 | > 100 | > 100 | > 100 | > 100 | > 100 | > 100 | 
3 | CCOC(=O)CCC(NC(=O)c1ccc(Oc2nc3ccccc3nc2C(=O)OCC)cc1)C(=O)OCC (stereo unspecified) | > 100 | > 100 | > 100 | > 100 | > 100 | > 100 | > 100 | > 100 | > 100 | > 100 | > 100 | > 100 | > 100 | > 100 |  |  | > 100 | > 100 | > 100 | 
4 | CN(CC#N)C(=O)Cc1ccc([N+](=O)[O-])cc1 | > 10 | > 10 | > 10 | > 10 | > 10 | > 10 | > 10 | > 10 | > 10 | > 10 | > 10 |  | > 10 | > 10 | > 10 | > 10 | > 10 | > 10 | > 10 | 
5 | c1ccc2c3nnc(c2c1)SCCSCCCSCCS3 | 40.6 | > 100 | > 100 | > 100 | > 100 | > 100 | > 100 | > 100 | > 100 | > 100 | > 100 | 87.7 | > 100 | 76 | 97.5 | 95.7 | 70.9 | > 100 |  | 
6 | NC(=O)C(=CN1CC(=O)NC1=S)C(N)=O | > 100 | > 100 | > 100 | > 100 | > 100 | > 100 | > 100 | > 100 | > 100 | > 100 | > 100 | > 100 | > 100 | > 100 | > 100 | > 100 | > 100 | > 100 |  | 
7 | FC(F)(F)C1(C(F)(F)F)C2CCC3(CC(F)(F)C(F)(F)S3)C1C2 (stereo unspecified) | > 100 | > 100 | > 100 | > 100 | > 100 | > 100 | 51.8 | > 100 | > 100 | > 100 | > 100 |  | > 100 | > 100 | > 100 | 84.3 | > 100 | > 100 | 44.1 | 
8 | O=C(N/C(=C/c1ccc(Cl)cc1)c1nc2ccccc2c(=O)n1Nc1ccc([N+](=O)[O-])cc1[N+](=O)[O-])c1ccccc1 | > 100 | > 100 | > 100 | > 100 | > 100 | > 100 |  | > 100 | > 100 | > 100 | > 100 | > 100 | > 100 | > 100 | > 100 |  | > 100 | > 100 | > 100 | 
9 | CC(C)(C)c1cc(C(C)(C)C)c2sc(=S)oc2c1O | 11.1 | 30.1 |  | 19.8 | 20.2 | 22.6 | 33 | > 46.7 | 18.9 | 18.7 | 23.5 | 28.9 | 27.6 | 27.6 | 32.8 | 14.5 | 31.1 | 23.4 | 9.76 | 
10 | CC(C)(C)OC(=O)N/N=C(/N)c1ccccc1 | > 100 | > 100 | > 100 | > 100 | > 100 | > 100 | > 100 |  | > 100 | > 100 | > 100 |  | > 100 | > 100 | > 100 | > 100 | > 100 | > 100 |  | 
11 | CCOC(=O)C(Cc1cn(S(=O)(=O)c2ccc(C)cc2)cn1)P(=O)(OCC)OCC (stereo unspecified) | > 100 | > 100 | > 100 | > 100 | > 100 | > 100 | > 100 | > 100 | > 100 | > 100 | > 100 |  | > 100 | > 100 | > 100 | > 100 | > 100 | > 100 | > 100 | 
12 | COC(=O)C(=O)C1CCCCC(C2=NC3NN=C(N)N3C2=O)C1=O (stereo unspecified) | > 100 | > 100 | > 100 |  | > 100 | > 100 | > 100 | > 100 | > 100 | > 100 | > 100 | > 100 | > 100 | > 100 | > 100 | > 100 | > 100 | > 100 | > 100 | 
13 | N#CC(c1ccccc1)(c1ccccc1)[C@@H](c1ccccc1)[C@H](Cc1ccccc1)NS(=O)(=O)c1ccccc1 | > 100 | > 100 | > 100 | > 100 | > 100 | > 100 | > 100 | > 100 | > 100 | > 100 | > 100 |  | > 100 | > 100 | > 100 | > 100 | > 100 | > 100 | > 100 | 
14 | CC(C)(C)C(=O)[CH-]C(=O)C(F)(F)C(F)(F)C(F)(F)F.CC(C)(C)C(=O)[CH-]C(=O)C(F)(F)C(F)(F)C(F)(F)F.[O-]CC1OC(O)C(O)C(O)C1O.[O-]CC1OC(O)C(O)C(O)C1O.[Ti+4] | > 100 | > 100 | > 100 |  | > 100 | > 100 | > 100 | > 100 | > 100 | > 100 | > 100 | 96.9 | > 100 | > 100 | > 100 | > 100 | > 100 | > 100 | > 100 | > 100
15 | O=C1C2Nc3ccccc3SC2C(=O)N1c1cccc([N+](=O)[O-])c1 (stereo unspecified) | > 100 | > 100 | > 100 |  | > 100 | > 100 | > 100 | > 100 | > 100 | > 100 | > 100 | > 100 | > 100 | > 100 | > 100 | > 100 | > 100 | > 100 | > 100 | 
16 | O=C(/C=C/c1ccc(F)c(F)c1)OCCc1ccccc1 | > 100 | > 100 | > 100 | > 100 | > 100 | > 100 | > 100 | > 100 | > 100 | > 100 | > 100 |  | > 100 | > 100 | > 100 |  | > 100 | > 100 | > 100 | 
17 | COc1cccc(-c2cc(=O)c3cccnc3[nH]2)c1 | 0.538 | 0.561 |  | 0.0394 | > 100 | > 100 |  | > 100 |  | > 100 | > 100 | > 100 | > 100 | > 100 | > 100 | > 100 | > 100 | > 100 |  | 
18 | Cn1c2c(cc(-c3ccccc3)c1=O)COc1ccccc1-2 | > 100 | 47.1 | > 100 |  | 54.1 | > 100 | 56.1 | > 100 | > 100 | > 100 | 74.9 | > 100 | 84.6 | > 100 | 86.8 | > 100 | > 100 | 28.9 | > 100 | 
19 | C=C1CC(C/C=C(\C)CC2CC(=C)C(=O)O2)OC1=O (stereo unspecified) | > 100 | > 100 | > 100 |  | > 100 | > 100 | > 100 | > 100 | > 100 | > 100 | > 100 | > 100 | > 100 | > 100 | > 100 | > 100 | > 100 | > 100 | > 100 | 
20 | COc1ccc(-n2c(=O)n(C)c(=O)n2-c2c(C)c(C)c(C)c(C)c2C)cc1 | > 100 | > 100 | > 100 | > 100 | > 100 | > 100 |  | > 100 | > 100 | > 100 | > 100 | > 100 | > 100 | > 100 | > 100 | > 100 | > 100 | > 100 |  | 
21 | CCCCCCCCCC(=O)CC(=O)c1c(O)cc(O)cc1O | 43.3 | 38.8 | 31.4 | 38 | 48.2 | > 75 | 42.8 | > 75 | 35.9 | > 75 | 68.2 | 44.7 | 72.8 | 68.1 | > 75 | 31.1 | 32.5 |  |  | 
22 | Cc1cc(Br)cc(C)c1NC(=O)C(=O)C1C(=O)C(CC2C(=O)c3ccccc3C2=O)C(=O)CC1(C)C (stereo unspecified) | > 100 | > 100 | > 100 | > 100 | > 100 | > 100 | > 100 | > 100 | > 100 | > 100 | > 100 | > 100 | > 100 | > 100 | > 100 | > 100 | > 100 | > 100 |  | 
23 | CC1C(=O)C23OC[C@@]1(C)C1(O)CC[C@@H](C)[C@]21CC3=O (stereo partly specified) | > 100 | > 100 | > 100 | > 100 | > 100 | > 100 | > 100 | > 100 | > 100 | > 100 | > 100 |  | > 100 | > 100 | > 100 | > 100 | > 100 | > 100 | > 100 | 
24 | CCOC(=O)c1c(C(F)(F)F)oc2c1ccc1nc3nonc3nc12 | 32 | 28.9 | 47.6 |  | 31.6 | 25.3 | 32.5 | 35.3 | 18.3 | 29.1 | > 63.3 | 27.3 | 27.3 | 38.2 | 35.7 | 16.4 | 18.9 | 29.1 | 17.7 | 
25 | COP(=O)(C(/C=C/c1ccccc1)OC(C)=O)[C@@H]1CCCC[C@H]1N(CC(C)(C)C)C(C)=O (stereo partly specified) | 33.4 | 28 | 28.2 | 36.7 | 78.9 | 35.8 | 41.3 | 41.2 | 42.5 | 31.7 | 39.9 |  | 53.1 | > 100 | > 100 | 22.1 | 42.3 | 28 | 36.2 | 
26 | CC1(C)O[C@@H](CP(c2ccccc2)c2ccccc2)[C@H](CP(c2ccccc2)c2ccccc2)O1 | 21.1 | 47.7 |  | 11.5 | 54.7 | 22.8 |  | 38.3 | 14.6 | 20.2 | 57.7 | 27.1 | 28 | 72.2 | > 100 | 26.9 | 44.6 |  |  | 
